According to US7897765B2, “Therapeutic compounds and uses thereof” (Elixir Pharmaceuticals, Inc., priority 2003, dated 2011):

The molecules below were run against GHS-R (Homo sapiens, UniProt Q92847) (assay: cell based assay of GHS-R antagonist/agonist activity). Settings: GHS-R antagonist Ki and/or agonist EC50 class.
Parameters: key: A refers to a compound having antagonist activity with Ki<100 nM in a cell based assay; B refers to a compound having agonist activity with EC50<100 nM in a cell based assay; C refers to a compound having antagonist activity of Ki>100 nM and <1500 nM in a cell based assay; D refers to a compound having antagonist activity with Ki, <100 nM and agonist activity with EC50<100 nM in a cell-based assay; E refers to other exemplary compounds
Procedure: Cell-Based Activity Assays. For example, the ability of the compound to modulate accumulation of a second messenger signaling component downstream of GHS-R can be evaluated. For example, inositol phosphates (IP), as a result of Gq signaling in a mammalian cell, e.g., a Cos-7 cells. Other tissue culture cells, Xenopus oocytes, and primary cells can also be used.
Phosphatidylinositol turnover assay. One day after transfection COS-7 cells are incubated for 24 hours with 5 μCi of [^3H]-myo-inositol in 1 ml medium supplemented with 10% fetal calf serum, 2 mM glutamine and 0.01 mg/ml gentamicin per well. Cells are then washed twice in buffer, 20 mM HEPES, pH 7.4, supplemented with 140 mM NaCl, 5 mM KCl, 1 mM MgSO4, 1 mM CaCl2, mM glucose, 0.05% (w/v) bovine serum; and incubated in 0.5 ml buffer supplemented with 10 mM LiCl at 37° C. for 30 min. For some assays, it is also useful to incubate the cells with adenosine deaminase ADA (200 U/mg, Boehringer Mannheim, Germany) for 30 min in a concentration of 1 U/ml.
After incubation with the compound of interest for 45 min at 37° C., cells are extracted with 10% ice-cold perchloric acid and placed on ice for 30 min. The resulting supernatants are neutralized with KOH in HEPES buffer, and [^3H]-inositol phosphate is purified on Bio-Rad AG 1-X8 anion exchange resin as described. Assays can be run in duplicate, triplicate, etc.
Other second messenger assays. Another second messenger that can be evaluated is Ca^2+. Ca^2+ mobilization can be evaluated using a calcium sensitive detector, such as aequorin protein or a dye, e.g., FURA-2. In an exemplary assay, calcium mobilization is evaluated in a recombinant cell that expresses GHS-R and aequorin.
Gene expression assay. HEK293 cells (30 000 cells/well) seeded in 96-well plates are transiently transfected with a mixture of pFA2-CREB and pFR-Luc reporter plasmid (PathDetect™ CREB trans-Reporting System, Stratagene) and nucleic acid encoding GHS. One day after transfection, cells are treated with the compound of interest in an assay volume of 100 μl medium for 5 hrs. After treatment, cells are cultured in low serum (2.5%). After the incubation period, the assay is ended by washing the cells twice with PBS and adding 100 μl luciferase assay reagent (LucLite™, Packard Bioscience). Luminescence is measured (e.g., as relative light units (RLU)) using in a luminometer such as the TopCounter™ (Packard Bioscience) for 5 sec.
IC50 and EC50 values can be determined by nonlinear regression, e.g., using the Prism 3.0 software (GraphPad Software, San Diego).

GHS-R, sequence (Q92847 whole entry, species assumed): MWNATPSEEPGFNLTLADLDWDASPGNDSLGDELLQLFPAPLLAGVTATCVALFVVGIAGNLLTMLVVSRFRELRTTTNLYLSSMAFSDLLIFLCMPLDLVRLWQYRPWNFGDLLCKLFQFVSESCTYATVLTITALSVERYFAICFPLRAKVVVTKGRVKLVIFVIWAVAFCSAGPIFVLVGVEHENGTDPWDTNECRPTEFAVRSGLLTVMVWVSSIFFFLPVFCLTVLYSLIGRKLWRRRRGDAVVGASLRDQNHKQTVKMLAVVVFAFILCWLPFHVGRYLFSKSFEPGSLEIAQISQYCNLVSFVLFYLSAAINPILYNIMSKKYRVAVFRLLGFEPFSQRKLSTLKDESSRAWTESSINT

| Structure (SMILES) | Activity |
| --- | --- |
| CS(=O)(=O)N1CC2(CCN(C(=O)[C@@H](COCc3ccccc3)NC(=O)[C@@H]3C=CCN3)CC2)c2ccccc21 [Compound 18] | C (C refers to a compound having antagonist activity of Ki>100 nM and <1500 nM in a cell based assay) |
| CC(C)N1CCC(C(=O)N[C@H](COCc2ccccc2)C(=O)N2CCC3(CC2)CN(S(C)(=O)=O)c2ccccc23)CC1 [Compound 19] | C (C refers to a compound having antagonist activity of Ki>100 nM and <1500 nM in a cell based assay) |
| CN(C)CC(=O)N[C@H](COCc1ccccc1)C(=O)N1CCC2(CC1)CN(S(C)(=O)=O)c1ccccc12 [Compound 20] | C (C refers to a compound having antagonist activity of Ki>100 nM and <1500 nM in a cell based assay) |
| CC(C)N(C)CCS(=O)(=O)N[C@H](COCc1ccccc1)C(=O)N1CCC2(CC1)CN(S(C)(=O)=O)c1ccccc12 [Compound 21] | C (C refers to a compound having antagonist activity of Ki>100 nM and <1500 nM in a cell based assay) |
| CN1CCC(CN(C)[C@H](COCc2ccccc2)C(=O)N2CCC3(CC2)CN(S(C)(=O)=O)c2ccccc23)CC1.Cl.Cl [Compound 22] | C (C refers to a compound having antagonist activity of Ki>100 nM and <1500 nM in a cell based assay) |
| CS(=O)(=O)N1CC2(CCN(C(=O)[C@@H](COCc3ccccc3)NC(=O)C[C@@H]3CCCN3)CC2)c2ccccc21 [Compound 23] | C (C refers to a compound having antagonist activity of Ki>100 nM and <1500 nM in a cell based assay) |
| CN1CCC[C@H]1C(=O)N[C@H](COCc1ccccc1)C(=O)N1CCC2(CC1)CN(S(C)(=O)=O)c1ccccc12 [Compound 24] | C (C refers to a compound having antagonist activity of Ki>100 nM and <1500 nM in a cell based assay) |
| CN(C)CC(=O)N[C@H](COCc1ccccc1)C(=O)N1CCC2(CC1)CN(S(=O)(=O)Cc1ccccc1)c1ccccc12 [Compound 26] | C (C refers to a compound having antagonist activity of Ki>100 nM and <1500 nM in a cell based assay) |
| CCN1CCC(C(=O)N[C@H](COCc2ccccc2)C(=O)N2CCC3(CC2)CN(S(C)(=O)=O)c2ccccc23)CC1 [Compound 27] | C (C refers to a compound having antagonist activity of Ki>100 nM and <1500 nM in a cell based assay) |
| CS(=O)(=O)N1CC2(CCN(C(=O)[C@@H](COCc3ccccc3)NS(=O)(=O)CCN3CCCC3)CC2)c2ccccc21.Cl [Compound 28] | C (C refers to a compound having antagonist activity of Ki>100 nM and <1500 nM in a cell based assay) |
| CN(C)CC(=O)N[C@H](COCc1ccccc1)C(=O)N1CCC2(C=Cc3ccccc32)CC1 [Compound 29] | C (C refers to a compound having antagonist activity of Ki>100 nM and <1500 nM in a cell based assay) |
| CC(C)(C)OC(=O)N[C@H](COCc1ccccc1)C(=O)N1CCC2(C=Cc3ccccc32)CC1 [Compound 30] | C (C refers to a compound having antagonist activity of Ki>100 nM and <1500 nM in a cell based assay) |
| COCC(=O)N[C@H](COCc1ccccc1)C(=O)N1CCC2(CC1)CN(S(C)(=O)=O)c1ccccc12 [Compound 31] | C (C refers to a compound having antagonist activity of Ki>100 nM and <1500 nM in a cell based assay) |
| CN1CCC[C@@H]1C(=O)N[C@H](COCc1ccccc1)C(=O)N1CCC2(CC1)CN(S(C)(=O)=O)c1ccccc12 [Compound 32] | C (C refers to a compound having antagonist activity of Ki>100 nM and <1500 nM in a cell based assay) |
| COCCN1CCC(C(=O)N[C@H](COCc2ccccc2)C(=O)N2CCC3(CC2)CN(S(C)(=O)=O)c2ccccc23)CC1 [Compound 33] | C (C refers to a compound having antagonist activity of Ki>100 nM and <1500 nM in a cell based assay) |
| CC(=O)OCC(=O)N[C@H](COCc1ccccc1)C(=O)N1CCC2(CC1)CN(S(C)(=O)=O)c1ccccc12 [Compound 34] | C (C refers to a compound having antagonist activity of Ki>100 nM and <1500 nM in a cell based assay) |
| CCN(C)CCS(=O)(=O)N[C@H](COCc1ccccc1)C(=O)N1CCC2(CC1)CN(S(C)(=O)=O)c1ccccc12 [Compound 35] | C (C refers to a compound having antagonist activity of Ki>100 nM and <1500 nM in a cell based assay) |
| CS(=O)(=O)N1CC2(CCN(C(=O)[C@@H](COCc3ccccc3)NC(=O)C3CNC3)CC2)c2ccccc21 [Compound 36] | C (C refers to a compound having antagonist activity of Ki>100 nM and <1500 nM in a cell based assay) |

| Structure (SMILES) | Activity |
| --- | --- |
| CS(=O)(=O)N1CC2(CCN(C(=O)[C@@H](COCc3ccccc3)NS(=O)(=O)CCN3CCCCC3)CC2)c2ccccc21.Cl [Compound 37] | C (C refers to a compound having antagonist activity of Ki>100 nM and <1500 nM in a cell based assay) |
| CCCN1CCC(C(=O)N[C@H](COCc2ccccc2)C(=O)N2CCC3(CC2)CN(S(C)(=O)=O)c2ccccc23)CC1 [Compound 38] | C (C refers to a compound having antagonist activity of Ki>100 nM and <1500 nM in a cell based assay) |
| CS(=O)(=O)N1CC2(CCN(C(=O)[C@@H](COCc3ccccc3)NC(=O)CN3CCC3)CC2)c2ccccc21 [Compound 39] | C (C refers to a compound having antagonist activity of Ki>100 nM and <1500 nM in a cell based assay) |
| CN(C)Cc1ccc(C(=O)N[C@H](COCc2ccccc2)C(=O)N2CCC3(CC2)CN(S(C)(=O)=O)c2ccccc23)cc1 [Compound 40] | C (C refers to a compound having antagonist activity of Ki>100 nM and <1500 nM in a cell based assay) |
| CS(=O)(=O)N1CC2(CCN(C(=O)[C@@H](COCc3ccccc3)NC(=O)NCCO)CC2)c2ccccc21 [Compound 41] | C (C refers to a compound having antagonist activity of Ki>100 nM and <1500 nM in a cell based assay) |
| CN1CCC(C(=O)N[C@@H](Cc2ccccc2)C(=O)N2CCC3(CC2)CN(S(C)(=O)=O)c2ccccc23)CC1 [Compound 42] | C (C refers to a compound having antagonist activity of Ki>100 nM and <1500 nM in a cell based assay) |
| CC(C)CCN1CCC(C(=O)N[C@H](COCc2ccccc2)C(=O)N2CCC3(CC2)CN(S(C)(=O)=O)c2ccccc23)CC1 [Compound 43] | C (C refers to a compound having antagonist activity of Ki>100 nM and <1500 nM in a cell based assay) |
| CC(C)(C)C(=O)N[C@H](COCc1ccccc1)C(=O)N1CCC2(CC1)CN(S(C)(=O)=O)c1ccccc12 [Compound 44] | C (C refers to a compound having antagonist activity of Ki>100 nM and <1500 nM in a cell based assay) |
| CN1CCC(C(=O)N[C@H](Cc2ccccc2)C(=O)N2CCC3(CC2)CN(S(C)(=O)=O)c2ccccc23)CC1 [Compound 45] | C (C refers to a compound having antagonist activity of Ki>100 nM and <1500 nM in a cell based assay) |
| CN1CCN(CCS(=O)(=O)N[C@H](COCc2ccccc2)C(=O)N2CCC3(CC2)CN(S(C)(=O)=O)c2ccccc23)CC1 [Compound 46] | C (C refers to a compound having antagonist activity of Ki>100 nM and <1500 nM in a cell based assay) |
| CN(C)CC(=O)N[C@H](COCc1ccccc1)C(=O)N1CCC2(CC1)CN(S(=O)(=O)CC(F)(F)F)c1ccccc12 [Compound 47] | C (C refers to a compound having antagonist activity of Ki>100 nM and <1500 nM in a cell based assay) |
| CN1CC2(CCN(C(=O)[C@@H](COCc3ccccc3)NC(=O)OC(C)(C)C)CC2)c2ccccc21 [Compound 48] | C (C refers to a compound having antagonist activity of Ki>100 nM and <1500 nM in a cell based assay) |
| CC(C)N1CC=C(C(=O)N[C@H](COCc2ccccc2)C(=O)N2CCC3(CC2)CN(S(C)(=O)=O)c2ccccc23)CC1.Cl [Compound 49] | C (C refers to a compound having antagonist activity of Ki>100 nM and <1500 nM in a cell based assay) |
| CC(C)(C)OC(=O)NC(C)(C)C(=O)N[C@H](COCc1ccccc1)C(=O)N1CCC2(CC1)CN(S(C)(=O)=O)c1ccccc12 [Compound 50] | E |
| CC(=O)N[C@H](COCc1ccccc1)C(=O)N1CCC2(CC1)CN(S(C)(=O)=O)c1ccccc12 [Compound 51] | E |
| CC(C)(C)CC(=O)N[C@H](COCc1ccccc1)C(=O)N1CCC2(CC1)CN(S(C)(=O)=O)c1ccccc12 [Compound 52] | E |
| CS(=O)(=O)N1CC2(CCN(C(=O)[C@@H](COCc3ccccc3)NC(=O)c3ccccn3)CC2)c2ccccc21 [Compound 53] | E |
